The source of these data is patent US10059704B2, “1,4-disubstituted 1,2,3-triazoles, methods for preparing same, and diagnostic and therapeutic uses thereof” (CENTRE NATIONAL DE LA RECHERCHE SCIENTIFIQUE (C.N.R.S.), priority 2011, dated 2018).

One data set concerns the target nicotinic receptors Rα7 (Rattus norvegicus, UniProt Q05941). Nature of the data set: biochemical. The class given is binding.
The mark [1] stands for this setting: rat frontal cortex membranes, [125I]α-bungarotoxin 2 nM, 22° C., 3 hours, Ki calculated from IC50 (Cheng and Prussof), read-out: Activity on Rα7.

Read-outs that look alike come from different tables or passages of the source.

nicotinic receptors Rα7, sequence (Q05941 23-502): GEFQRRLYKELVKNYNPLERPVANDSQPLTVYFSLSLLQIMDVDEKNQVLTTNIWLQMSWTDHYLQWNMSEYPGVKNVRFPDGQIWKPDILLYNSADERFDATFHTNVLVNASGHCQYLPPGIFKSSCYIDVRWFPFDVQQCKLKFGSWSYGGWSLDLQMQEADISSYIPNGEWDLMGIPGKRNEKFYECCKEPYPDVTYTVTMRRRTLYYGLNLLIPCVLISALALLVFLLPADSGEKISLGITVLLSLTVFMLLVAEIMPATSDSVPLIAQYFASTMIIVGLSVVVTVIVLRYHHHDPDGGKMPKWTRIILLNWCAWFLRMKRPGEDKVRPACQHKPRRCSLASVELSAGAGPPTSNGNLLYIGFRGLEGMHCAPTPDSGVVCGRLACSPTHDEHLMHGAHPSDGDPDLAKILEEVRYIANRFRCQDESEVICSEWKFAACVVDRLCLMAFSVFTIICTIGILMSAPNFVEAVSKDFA

For the compound `OCc1ccc(-c2ccc(-c3cn([C@H]4CN5CCC4CC5)nn3)cc2)s1` [Compound 114, (R)-[5-[4-[1-[quinuclidin-3-yl]-1H-1,2,3-triazol-4-yl]phenyl]-2-thienyl]methanol], the melting point (usually the temperature of the solid-liquid transition) was 234 °C. The compound further displayed a Ki at nicotinic receptors Rα7 of 160 nM.
Compound `Fc1ccc(-c2cn([C@H]3CN4CCC3CC4)nn2)cc1` [Compound 42, (R)-3-(4-(4-Fluorophenyl)-1H-1,2,3-triazol-1-yl)quinuclidine] returned a melting point of 180 °C.
The same measure, in the same setting: next, `Brc1ccc(-c2cn([C@H]3CN4CCC3CC4)nn2)o1`: 144 °C.
In turn, `Brc1ccc(-c2cn([C@H]3CN4CCC3CC4)nn2)cc1` [Compound 41, (R)-3-(4-(4-Bromophenyl)-1H-1,2,3-triazol-1-yl)quinuclidine] had a melting point of 158 °C. Further, at nicotinic receptors Rα7, the Ki stood at 6 ± 3 nM.
`OCc1ccc(-c2coc(-c3cn([C@H]4CN5CCC4CC5)nn3)c2)cc1` [Compound 90, (R)-[4-[5-[1-[quinuclidin-3-yl]-1H-1,2,3-triazol-4-yl]-3-furyl]phenyl]methanol]: the melting point was 202 °C. Further, the Ki on nicotinic receptors Rα7 turned out to be 9 nM.
For `COc1cccc(-c2cn([C@H]3CN4CCC3CC4)nn2)c1` [Compound 47, (R)-3-(4-(3-Methoxyphenyl)-1H-1,2,3-triazol-1-yl)quinuclidine], the Ki at nicotinic receptors Rα7 (setting [1]) was 2.3 ± 1 nM.
Consider `OCc1cccc(-c2coc(-c3cn([C@H]4CN5CCC4CC5)nn3)c2)c1` [Compound 92, (R)-[3-[5-[1-[quinuclidin-3-yl]-1H-1,2,3-triazol-4-yl]-3-furyl]phenyl]methanol], for which the melting point came out at 212 °C. In addition, the Ki on nicotinic receptors Rα7 worked out at 115 nM.
For `Fc1ccc(-c2csc(-c3cn([C@H]4CN5CCC4CC5)nn3)c2)cn1` [Compound 88, (R)-3-[4-[4-(6-fluoro-3-pyridyl)-2-thienyl]-1H-1,2,3-triazol-1-yl]quinuclidine], the melting point worked out at 136 °C.
Compound `c1cc2cc(-c3cn([C@H]4CN5CCC4CC5)nn3)ccc2o1` [Compound 56, (R)-3-(4-(Benzofuran-5-yl)-1H-1,2,3-triazol-1-yl)quinuclidine] displayed a melting point of 178 °C. The Ki on nicotinic receptors Rα7 (setting [1]) is 3 ± 1 nM.
Taken in the same sequence, the figures for `FC1(c2cn(-c3ccc(Br)cc3)nn2)CN2CCC1CC2` (stereo not shown) [Compound 71, 3-Fluoro-3-(1-(4-bromophenyl)-1H-1,2,3-triazol-4-yl)quinuclidine] were 127 °C and 150 ± 10 nM.
For `Cl.ClCc1ccc(-c2ccc(-c3cn([C@H]4CN5CCC4CC5)nn3)s2)cc1`, the melting point was 255 °C.
For the compound `OCc1cccc(-c2ccc(-c3cn([C@H]4CN5CCC4CC5)nn3)cc2)c1` [Compound 95, (R)-[3-[4-[1-[quinuclidin-3-yl]-1H-1,2,3-triazol-4-yl]phenyl]phenyl]methanol], the melting point was determined as 207 °C. Also, at nicotinic receptors Rα7 (setting [1]), the Ki was 100 nM.
In turn, `Fc1ccc(-c2cn([C@@H]3CN4CCC3CC4)nn2)cc1` [Compound 57, (S)-3-(4-(4-Fluorophenyl)-1H-1,2,3-triazol-1-yl)quinuclidine] displayed a melting point of 139 °C. Further, at nicotinic receptors Rα7 (setting [1]), the Ki is 114 ± 38 nM.
Regarding `FCc1cccc(-c2ccc(-c3cn([C@H]4CN5CCC4CC5)nn3)s2)c1`, the melting point worked out at 144 °C.
As to `c1csc(-c2ccc(-c3cn([C@H]4CN5CCC4CC5)nn3)cc2)c1` [Compound 96, (R)-3-[4-[4-(2-thienyl)phenyl]-1H-1,2,3-triazol-1-yl]quinuclidine], the melting point came out at 214 °C. This compound displayed a Ki at nicotinic receptors Rα7 of 135 nM.
The compound `Fc1ccccc1-c1cn([C@H]2CN3CCC2CC3)nn1` [Compound 44, (R)-3-(4-(2-Fluorophenyl)-1H-1,2,3-triazol-1-yl)quinuclidine] gave a melting point of 94 °C. Moreover, the Ki on nicotinic receptors Rα7 (setting [1]) is 13 ± 3 nM.
On to `c1cc2cc(-c3cn([C@H]4CN5CCC4CC5)nn3)ccc2s1` [Compound 55, (R)-3-(4 Benzo[b](thiophen-5-yl)-1H-1,2,3-triazol-1-yl) quinuclidine], for which the melting point was determined as 178 °C. Further, at nicotinic receptors Rα7 (setting [1]), the Ki is 19 ± 1 nM.
In turn, `CN1CCN(Cc2cccc(-c3ccc(-c4cn([C@H]5CN6CCC5CC6)nn4)s3)c2)CC1` showed a melting point of 155 °C.
Same read-out and setting: next, `O=[N+]([O-])c1ccc(-c2ccc(-c3cn([C@H]4CN5CCC4CC5)nn3)s2)cn1`: 160 °C.
Still for that read-out and setting: with `FCc1ccc(-c2cn([C@H]3CN4CCC3CC4)nn2)cc1` [Compound 58, (R)-3-(4-(4-(Fluoromethyl)phenyl)-1H-1,2,3-triazol-1-yl)quinuclidine] the figure was 138 °C.
Same read-out and setting: next, `Clc1ccc(-c2cccc(-c3cn([C@H]4CN5CCC4CC5)nn3)c2)cn1`: 80 °C (dec.); `Cl.ClCc1ccc(-c2cn([C@H]3CN4CCC3CC4)nn2)cc1`: 240 °C.
`Brc1csc(-c2cn([C@H]3CN4CCC3CC4)nn2)c1` displayed a melting point of 106 °C.
The same measure, in the same setting: next, `OCc1ccc(-c2csc(-c3cn([C@H]4CN5CCC4CC5)nn3)c2)cc1` [Compound 86, (R)-[4-[5-[1-[quinuclidin-3-yl]-1H-1,2,3-triazol-4-yl]-3-thienyl]phenyl]methanol]: 196 °C; `COC(=O)c1ccc(-c2ccc(-c3cn([C@H]4CN5CCC4CC5)nn3)s2)cc1Cl`: 200 °C; `c1ccc(-c2cn(C3CCCN4CCCCC34)nn2)cc1` (stereo not shown): 150 °C.
On the same count and under the same terms, next, `Fc1ccc(-c2ccc(-c3cn([C@H]4CN5CCC4CC5)nn3)cc2)cn1`: 181 °C.
Same read-out and setting: with `Fc1ccc(-c2ccc(-c3cn([C@H]4CN5CCC4CC5)nn3)s2)cn1` [Compound 87, (R)-3-[4-[5-(6-fluoro-3-pyridyl)-2-thienyl]-1H,1,2,3-triazol-1-yl]quinuclidine] the figure was 163 °C.
With `c1ccc(-c2ccc(-c3cn([C@H]4CN5CCC4CC5)nn3)s2)cc1`, the melting point turned out to be 184 °C.
On the same count and under the same terms, with `Brc1coc(-c2cn([C@H]3CN4CCC3CC4)nn2)c1` the figure was 129 °C; with `c1cc(-c2cn([C@H]3CN4CCC3CC4)nn2)ccn1` [Compound 50, (R)-3-(4-(Pyridin-4-yl)-1H-1,2,3-triazole-1-yl)quinuclidine], 150 °C; with `COc1ccc(-n2cc(C3(O)CN4CCC3CC4)nn2)cc1` (stereo not shown), 174 °C.
Same read-out and setting: with `O=[N+]([O-])c1ccc(-c2cccc(-c3cn([C@H]4CN5CCC4CC5)nn3)c2)cn1` the figure was 180 °C.
Still for that read-out and setting: with `OCc1ccc(-c2cn([C@H]3CN4CCC3CC4)nn2)cc1` [Compound 38, (R)-(4-(1-(Quinuclidin-3-yl)-1H-1,2,3-triazol-4-yl)phenyl)methanol] the figure was 200 °C; with `OCc1cccc(-c2ccc(-c3cn([C@H]4CN5CCC4CC5)nn3)s2)c1` [Compound 85, (R)-[3-[5-[1-[quinuclidin-3-yl]-1H2,3-triazol-4-yl]-2-thienyl]phenyl]methanol], 181 °C.
In turn, `Fc1ccc(-c2cn(C3CCCN4CCCCC34)nn2)cc1` (stereo not shown) came in with a melting point of 142 °C.
`OC1(c2cn(-c3ccc(Br)cc3)nn2)CN2CCC1CC2` (stereo not shown): the melting point came to 214 °C.
Compound `COc1ccccc1-c1cn([C@H]2CN3CCC2CC3)nn1` [Compound 48, (R)-3-(4-(2-Methoxyphenyl)-1H-1,2,3-triazol-1-yl)quinuclidine] yielded a melting point of 120 °C.
